Reference: patent publication US20250325675A1, “APTAMER, CONJUGATE, COMPOSITION, METHOD FOR PREPARING SAME, AND USE THEREOF” (priority 2022, published 2025)
{Cy5} = cyanine 5 fluorescent dye

Legend:
U118-MG glioma cells = assay: Flow cytometry: entry of conjugates into U118-MG glioma cells in vitro; type: cell-based, human; details: for relative fluorescence difference R: R=(MFIAP1−MFICAP10)/MFICAP10; for mean fluorescence intensity (MFI): 1 h 37°C, yeast tRNA 100 μg/mL, flow cytometry
Protocol: U118MG cells were seeded into a 96-well plate at 5×10^5 cells/well. Conjugate AP1 prepared above and yeast tRNA were respectively formulated into conjugates solution 1A, 1B, 1C, 1D, 1E, 1F, 1G, 1H, and 1I with DMEM medium, and these conjugate solutions 1A-1I comprised yeast tRNA at a final concentration of 100 μg/mL and respectively comprised conjugate AP1 at final concentrations of 5 nM, 10 nM, 20 nM, 40 nM, 60 nM, 80 nM, 100 nM, 150 nM, 200 nM, and […].
Control conjugate comparative AP10 prepared above and yeast tRNA were respectively formulated into conjugates solution 1A′, 1B′, 1C′, 1D′, 1E′, 1F′, 1G′ 1H′, and 1I′ with DMEM medium, and these conjugate solutions 1A′-1I′ comprised yeast tRNA at a final concentration of 100 μg/mL and respectively comprised control conjugate comparative AP10 at final concentrations of 5 nM, 10 nM, 20 nM, 40 nM, 60 nM, 80 nM, 100 nM, 150 nM, 200 nM, and […].
The aforementioned culture wells containing U118MG cells were respectively added with the conjugate solutions 1A-1I above in an amount of 200 μL/well and designated as test group 1A-test group 1I. The aforementioned culture wells containing U118MG cells were respectively added with the conjugate solution 1A′-1I′ above in an amount of 200 μL/well and designated as control group 1A′-control group 1I′. Another culture well containing U118MG cells was added with 200 μL DMEM medium containing yeast tRNA at a final concentration of 100 μg/mL and designated as blank control group 1J. The 96-well plate containing the above test groups and the blank control group were incubated at 37° C. for 1 h in the dark; after incubation, the supernatant of the reaction mixture of each test group and the blank control group was aspirated, and DPBS buffer (purchased from Thermo Fisher) was added to wash the plate 3 times (100 μL each time). After the washing solution was aspirated, each culture well was added with 100 μL DMEM medium to obtain a cell suspension. The supernatant was removed by centrifugation and then 500 μL DPBS buffer was added to re-suspend the cells. Flow cytometry analysis was performed with flow cytometer (BD Biosciences): 10,000 cells in each test group or the blank control group were analyzed, the fluorescence intensity distribution was determined and the mean fluorescence intensity (MFI, a.u.) was calculated. Furthermore, the mean fluorescence intensity corresponding to each final concentration of conjugates is listed in Table 4 below for comparison, and the relative fluorescence difference R is calculated according to the following equation: R=(MFIAP1−MFICAP10)/MFICAP10.
Therein, MFIAP1 represents mean fluorescence intensity of conjugate AP1 in U118-MG glioma cells, and MFICAP10 represents mean fluorescence intensity of comparative AP10 in U118-MG glioma cells.

[1] = test system: U118-MG neuroglioma cells; assay: CCK8 cell viability, U118-MG neuroglioma cells (Experimental Example 12); type: cell-based, human; details: 72 h; AP1 50-800 nM, conjugate 19 25-800 nM; CCK8, OD450
Protocol: U118MG neuroglioma cells were purchased from Jennio; SVGp12 human astrocytes were purchased from the Shanghai Cell Bank of Chinese Academy of Sciences; CCK8 kit was purchased from DOJINDO Laboratories.
U118MG cells and SVGp12 cells in the logarithmic growth phase were selected and seeded into a 96-well plate of a CCK8 kit at 5000 cells/well, cultured at 37° C. with 5% CO2 for 24 h. U118-MG cells and SVGp12 cells to be detected were obtained when the cell confluence was observed as 80% under microscope. […]
AP1 solution 1, AP1 solution 2, AP1 solution 3, and AP1 solution 4 were respectively added into U118-MG cells to be detected, and incubated at 37° C. for 72 h in the dark. […]
Conjugate 19 solution 1, Conjugate 19 solution 2, Conjugate 19 solution 3, Conjugate 19 solution 4, Conjugate 19 solution 5, Conjugate 19 solution 6, and Conjugate 19 solution 7 were respectively added into U118-MG cells to be detected, and incubated at 37° C. for 72 h in the dark. […]
CC8 kit was used to detect UV absorbance of test groups and control groups above at the detection wavelength of 450 nm in UV absorption spectrum according to the instructions, and the average value of the repeated experiments was taken for each group. Cell viability was calculated according to the following equation: […]

Substance: CY5-CfUfGGAGUfUfCfAGACfGUfGUfUfGCfUfCfUfUfCfCfGAUfCfUfCf (CUGGAGUUCAGACGUGUUGCUCUUCCGAUCUC; 2'-fluoro at CU, RNA at AG, 5' {Cy5}, backbone not given here) [AP1]
- relative fluorescence difference R (U118-MG glioma cells; 5 nM): 9.37
- relative fluorescence difference R (U118-MG glioma cells; 10 nM): 6.47
- relative fluorescence difference R (U118-MG glioma cells; 20 nM): 5.18
- relative fluorescence difference R (U118-MG glioma cells; 40 nM): 2.25
- relative fluorescence difference R (U118-MG glioma cells; 60 nM): 2.53
- relative fluorescence difference R (U118-MG glioma cells; 80 nM): 2.71
- relative fluorescence difference R (U118-MG glioma cells; 100 nM): 1.88
- relative fluorescence difference R (U118-MG glioma cells; 150 nM): 2.17
- relative fluorescence difference R (U118-MG glioma cells; 200 nM): 3.23
- relative fluorescence difference R (U118-MG glioma cells; 500 nM): 2.91
- mean fluorescence intensity compared with comparative AP10 (U118-MG glioma cells; at different concentrations (5-500 nM)): significantly higher mean fluorescence intensity
- mean fluorescence intensity (MFI) (U118-MG glioma cells; conjugate 5 nM): 263.4 a.u.
- mean fluorescence intensity (MFI) (U118-MG glioma cells; conjugate 10 nM): 503.4 a.u.
- mean fluorescence intensity (MFI) (U118-MG glioma cells; conjugate 20 nM): 1089.4 a.u.
- mean fluorescence intensity (MFI) (U118-MG glioma cells; conjugate 40 nM): 1440.4 a.u.
- mean fluorescence intensity (MFI) (U118-MG glioma cells; conjugate 60 nM): 2355.4 a.u.
- mean fluorescence intensity (MFI) (U118-MG glioma cells; conjugate 80 nM): 2921.4 a.u.
- mean fluorescence intensity (MFI) (U118-MG glioma cells; conjugate 100 nM): 3360.4 a.u.
- mean fluorescence intensity (MFI) (U118-MG glioma cells; conjugate 150 nM): 3969.4 a.u.
- mean fluorescence intensity (MFI) (U118-MG glioma cells; conjugate 200 nM): 7895.4 a.u.
- mean fluorescence intensity (MFI) (U118-MG glioma cells; conjugate 500 nM): 15770.4 a.u.
- cell viability of tumor cells [1]: no effect on cell viability
